Consider one compound from PubChem BioAssay AID1259348 (Broad Institute, 2017).

This assay has as its target Insulin-degrading enzyme (Homo sapiens) (UniProt P14735). Nature of the assay: inhibitors of IDE decapeptide proteolysis, dose response, counter-screen for IDE exo-site inhibitor project, biochemical, kinetic mode (AID 1259348).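 For z-score: purified IDE bound to fluorescein-labelled 6b probe FL-6b at the exo-site; probe displacement lowers polarization so hits show a drop in FP signal.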 As to conditions: purified human IDE, fluorogenic decapeptide proteolysis. Background: Counterscreens check selectivity or assay interference.

Chain of Insulin-degrading enzyme (Homo sapiens) (P14735 42-1019 limits assumed): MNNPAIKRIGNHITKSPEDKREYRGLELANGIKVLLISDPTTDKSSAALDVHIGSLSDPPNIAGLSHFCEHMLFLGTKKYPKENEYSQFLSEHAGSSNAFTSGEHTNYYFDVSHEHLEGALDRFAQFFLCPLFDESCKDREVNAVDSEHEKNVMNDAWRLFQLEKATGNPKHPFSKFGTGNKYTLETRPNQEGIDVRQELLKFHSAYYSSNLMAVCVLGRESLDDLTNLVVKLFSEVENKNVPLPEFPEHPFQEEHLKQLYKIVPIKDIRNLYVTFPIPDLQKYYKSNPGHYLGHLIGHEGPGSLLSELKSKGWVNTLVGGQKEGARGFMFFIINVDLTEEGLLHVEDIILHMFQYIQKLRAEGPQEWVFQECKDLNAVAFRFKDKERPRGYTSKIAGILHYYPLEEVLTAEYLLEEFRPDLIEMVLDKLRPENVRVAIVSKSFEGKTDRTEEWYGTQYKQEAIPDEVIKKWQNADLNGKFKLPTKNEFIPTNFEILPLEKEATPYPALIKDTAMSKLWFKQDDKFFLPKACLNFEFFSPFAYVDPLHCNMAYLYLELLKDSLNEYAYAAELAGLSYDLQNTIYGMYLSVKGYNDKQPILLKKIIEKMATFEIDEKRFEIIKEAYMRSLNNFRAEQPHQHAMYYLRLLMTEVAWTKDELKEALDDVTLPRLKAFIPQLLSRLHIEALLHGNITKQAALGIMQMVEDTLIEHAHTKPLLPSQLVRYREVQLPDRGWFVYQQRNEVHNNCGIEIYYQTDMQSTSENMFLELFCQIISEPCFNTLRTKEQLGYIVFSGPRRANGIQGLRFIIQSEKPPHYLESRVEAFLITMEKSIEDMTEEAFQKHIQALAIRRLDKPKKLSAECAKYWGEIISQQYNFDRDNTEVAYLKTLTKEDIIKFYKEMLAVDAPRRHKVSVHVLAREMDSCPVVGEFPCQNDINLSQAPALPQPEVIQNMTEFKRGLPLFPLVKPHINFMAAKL

Take `Cc1ccccc1-c1ccc([C@H]2[C@@H](CO)N3CCCCN(C(=O)NC4CCCC4)C[C@H]23)cc1`: the IC50 (commonly the concentration that gives 50% inhibition) is 880 nM. Further, under “measured here: primary FP probe displacement screen, stronger effect = lower value”, the z-score is -17.3.
